Patent publication US20250292907A1, “SYSTEMS AND METHODS FOR PERFORMING GAIT AND SPEECH ASSESSMENT ASSOCIATED WITH A DISEASE STATE” (Regeneron Pharmaceuticals, Inc., priority 2024, published 2025)

Columns and labels:
[1] = system: subjects with Parkinson's Disease (PD); experiment: Levodopa challenge test: MDS-UPDRS Part III motor examination in OFF state vs ON state; assay type: in vivo, human; details: ON minus OFF, mean (SD)
Experimental: To participate in the study, participants were required to meet several inclusion criteria. First, they needed a clinical diagnosis of PD confirmed by a treating movement disorders neurologist. Participants had to be between the ages of 40 and 70. […] Participants had to be willing to undergo a levodopa challenge test, which involves coming to an assessment site for evaluation in the morning after not taking levodopa since the night before (e.g., at least 12 hours). They would then take levodopa at the site, wait for it to take effect (achieving the “ON” state), and repeat the motor evaluation. Additionally, participants needed to be ambulatory in the “OFF” state, meaning they could walk safely without a walking aid on a flat surface at the start of the levodopa challenge test. […]
At step 305, system 100 may receive data from subjects that were assessed in an OFF-state. […]
In some aspects, the site investigator, who is a movement disorders specialist, was tasked with performing the MDS-UPDRS Part III motor examination. […] Specific tasks, including toe tapping and leg agility, were performed using the production device while wearing the wearable insole tests device to enable a quantitative analysis of these movements.
At step 310, system 100 may receive data from the subjects that were assessed in the ON-state. […]

[2] = system: subjects with Parkinson's Disease (PD); experiment: Speech assessment with digital mobile speech-based platform in OFF vs ON medication state; assay type: in vivo, human; details: before vs after levodopa treatment, FIG. 103
Source text: Additionally, subjects were also tasked with performing voice and speech assessments using the digital mobile speech-based platform. These speech and language tasks were designed to evaluate different aspects of verbal ability and cognitive function in participants. In an aspect, these tasks were organized to be conducted in a quiet environment to ensure accurate measurement of speech parameters. In a picture description task, participants are shown a static image depicting an event and asked to describe it in their own words. This task serves as a proxy for spontaneous discourse, providing insights into natural language use. […] In a paragraph reading task, participants were required to read one of three standard paragraphs designed to include all English language phonemes and an equal number of details and information units. This task evaluates reading fluency and pronunciation. […] During this task, gait parameters were measured simultaneously using the wearable insoles test device and the production device. […] This involved repeating the same set of voice-related activities performed in the OFF state, including paragraph reading, picture description, object naming, rapid syllable repetition, and sustained phonation. Conducting these tasks in a quiet environment ensured that the speech parameters were accurately measured without external distractions. […]

For `N[C@@H](Cc1ccc(O)c(O)c1)C(=O)O` [levodopa], the “mean difference in the MDS-UPDRS III between the ON and OFF state” value ([1]; all subjects) was -19.1 (SD=10), the “mean difference in the LE subscore between the ON and OFF state” value ([1]; lower extremity subscore of MDS-UPDRS III) was −5.7 (SD=4) and the “change in average word duration between medication states” value [2] was “prevalent trend of decreasing word duration”.
